Assay results: patent publication US20220031670A1, “PHARMACEUTICAL COMBINATIONS FOR USE IN THE TREATMENT OF NEOPLASTIC DISEASES” (Basilea Pharmaceutica International AG, priority 2018, published 2022)
Marks after values point to notes of the source that are not given here.

Tests used:
[1] = Pharmacokinetic profile in mouse plasma (LC-MS/MS), single agents versus combination; format: in vivo, PAXF1657 tumor bearing mice; conditions: 10 minutes to 24 hours, BAL101553 oral, Gemcitabine 240 mg/kg i.v. 4 hours before BAL101553
Protocol: PAXF1657 tumor bearing mice of the identical strain were treated either with BAL101553 oral 10 mg/kg, Gemcitabine 240 i.v. mg/kg or with a combination of BAL101553 and Gemcitabine where Gemcitabine was administered 4 hours before BAL101553. Control animals received appropriate vehicle control. The mice were dosed until steady state was reached (BAL101553 was dosed d1-d3 and Gemcitabine was dosed on day 3, the doses used for the combination-treatment matched those used in the monotherapy). Blood was taken from every animal according to a determined schedule covering a time window of 10 minutes to 24 hours, processed for plasma and subsequently analyzed by LC-MS/MS for the determination of BAL27862 (parent drug of BAL101553) and Gemcitabine concentrations (ng/ml plasma). Data points represent mean values of ng/ml plasma concentration+/−SEM (n=3 animals). […]
The following calibration ranges in mouse plasma were applied: 1.00 to 500 ng/mL and 10 to 10000 ng/mL for BAL27862 and 10.0 to 10000 ng/mL for BAL101553 and Gemcitabine. Thus, the limit-of-quantitation (LOQ) was: 1 ng/mL for BAL27862 and 10.0 ng/mL for BAL101553 and Gemcitabine. […]

[2] = system: patient-derived pancreatic tumour PAXF1657 xenograft; test: Antitumor efficacy and induction of cures in the patient-derived PAXF1657 pancreatic xenograft model; format: in vivo, female NMRI nu/nu mice; conditions: for # of regressed tumors (total) / T/C: day 21 after first dose; for # of confirmed cures (total) / # of tumors with TV ≤ 4 mm^3 (total) / % cures: day 60 after first dose (endpoint); for tumor free animals / cures (in words): single agent treatment (BAL101553 even at 16 mg/kg; Gemcitabine SoC)
Protocol: The tumor xenografts are derived from surgical specimens from cancer patients. Following excision at surgery, tumor pieces were subcutaneously implanted into immunodeficient mice and are therefore referred to as patient tumor explants passaged subcutaneously in nude mice or as patient-derived tumor xenografts (PDX). Establishment and characterization of the PDXs was performed following their primary implantation into immunodeficient mice (passage 1). The tumor xenografts were passaged until establishment of a stable growth pattern. At that point, master stocks of early passage PDXs were frozen in liquid nitrogen. Usually, a particular stock batch is only used for a limited number of further passages.
Tumor fragments for implantation were obtained from xenografts in serial passage in female NMRI nu/nu mice (NMRI-Foxn1nu). After removal from donor mice, tumors were cut into fragments (3-4 mm edge length) and placed in PBS containing 10% penicillin/streptomycin. Recipient female mice (10 weeks old NMRI-Foxn1nu animals) were anesthetized by inhalation of isoflurane and received unilateral tumor implants of PAXF1657 tumors subcutaneously in the flank.
Mice and tumor implants were monitored daily until solid tumor growth was detectable in a sufficient number of animals. At randomization, the volume of growing tumors was determined. Tumors were measured (mm) in two dimensions using calipers, and volume was calculated using the formula: Tumor Volume (TV) (mm^3)=(width^2×length)/2. […] Sixteen days after tumor cell implantation, on Day 0 of the study, mice were randomized into groups of 10 animals, with group median tumor volumes of 106.6-109.2 mm^3 and body weights of 25.3-27.0 g.
The solution of BAL101553 with a concentration of 1.6 mg/ml for dosing at 16 mg/kg and as stock solution for the preparation of the other dosing solutions was prepared at the beginning of the study by dissolving 595.2 mg of the provided powder in 300 ml vehicle (stirring/vortexing/sonicating if necessary). The acidity of this solution was adjusted to pH 5 with a 1% sodium acetate solution; afterwards the total volume was adjusted to 372 ml by addition of the vehicle (99.7% (v/v) saline solution (0.9% (w/v) NaCl), 0.3% (v/v) sodium acetate, pH 5). The stock solution was sterile filtered and aliquoted into vials of each 12 ml that were stored at −20° C. One vial was thawed on each dosing day. For the 16 mg/kg dose, the solution was applied undiluted; for 8 mg/kg dose, one volume of the stock solution was diluted with one volume vehicle prior to application; and for 10 mg/kg dose, one volume of the stock solution was diluted with 0.6 volumes vehicle
The Gemcitabine dosing solution at a concentration of 24 mg/ml for dosing at 240 mg/kg was prepared once per week on the dosing day by dissolving 591.89 mg of Gemcitabine-HCl (Gemedac®, Medac Germany) corresponding to 264 mg active pharmaceutical ingredient in 11 ml of the vehicle (0.9% (w/v) NaCl). The dosing solution was administered in a dose volume of 10 ml/kg.
All doses were adjusted to 10 mL/kg. […] Gemcitabine was administered i.v. and BAL101553 orally.
The antitumor effect of the combination treatment with BAL101553 (prodrug of BAL27862) and gemcitabine was evaluated in the established in vivo subcutaneous patient-derived pancreatic mouse xenograft model PAXF1657. By using 3 different dosing regimens of BAL101553 as monotherapy, standard of care (SoC) dosing of gemcitabine monotherapy and the combination treatment of two different dosing regimens of BAL101553 with SoC gemcitabine, the anticancer effect of single agent treatments and of the combined treatments were determined and compared. […]

[3] = Tolerability (body weight, mortalities) in the PAXF1657 pancreatic xenograft model
Protocol: Animals were housed in individually ventilated cages ([…] Sealsafe™-IVC-System, […], Hohenpeissenberg, Germany), depending on group size, either in type III or type II long cages. They were kept under a 14 L:10D artificial light cycle. The temperature inside the cages was maintained at 25±1° C. with a relative humidity of 40-70% and an air change (AC) rate in the cage of 60-65 AC/hour. Dust-free bedding consisting of aspen wood chips with approximate dimensions of 5×5×1 mm (ABEDD®-LAB & VET Service GmbH, Vienna, Austria, Product Code: LTE E-001) and additional nesting material were used. The cages including the bedding and the nesting material were changed weekly. The animals were fed autoclaved Teklad Global 19% Protein Extruded Diet (T.2019S.12) from Envigo RMS SARL and had access to sterile filtered and acidified (pH 2.5) tap water that was changed twice weekly. Feed and water were provided ad libitum. All materials were autoclaved prior to use. Animals were provided with a nutrient fortified water gel (DietGel® Recovery from ClearH2O, Maine, USA) from day 0 to day 45, which was changed every other day.
Groups of mice (n=10) bearing PAXF1657 tumors were dosed as outlined in Table 1. All doses were adjusted to 10 mL/kg. The control groups received oral doses of vehicle (pH 5 buffered 0.9% NaCl solution). Gemcitabine was administered i.v. and BAL101553 orally. When Gemcitabine and BAL0101553 were dosed in combination, Gemcitabine was administered first followed by a delay of 4 h for the BAL0101553 dosing.
Body weights and tumor volumes were recorded twice weekly until the end of the on day 60. These parameters were analyzed and graphically represented by using GraphPad-Prism™ 7 for Windows according to standard procedure. Tumor growth regression was defined as TV (at day 21)−TV (day 0)<0. […] Tumor free animals at the end of the study time (day 60) were assessed for residual PAXF1657 tumor cells by pathological methods. Skin und subcutaneous tissue including the tumor cell inoculation site from the flank region were resected, preserved in formalin and embedded in paraffin. Sections of approximately 5 μm were mounted on glass slides and stained with hematoxylin/eosin and were evaluated by a trained pathologist, to identify residual tumor cells at the site of injection, and were being reported as positive for the existence of residual tumor cells or as negative for a complete lack of any evidence of residual tumor cells.
Dosing schemes are outlined in Table 1.

[4] = BAL101553 p.o. 8 mg/kg qd (h:4) x42
[5] = BAL101553 p.o. 10 mg/kg qd (h:4) x42
[6] = BAL101553 p.o. 16 mg/kg qd (h:4) x42
[7] = Gemcitabine i.v. 240 mg/kg qw (h:0) x6

## N#CCCNc1nonc1-c1nc2ccccc2n1CC(=O)c1ccc(N)cc1 [BAL27862, 3-(4-{1-[2-(4-Amino-phenyl)-2-oxo-ethyl]-1H-benzoimidazol-2-yl}-furazan-3-ylamino)-propionitrile]
[1]
  plasma concentrations, single agents versus combination: did not change significantly

## N#CCCNc1nonc1-c1nc2ccccc2n1CC(=O)c1ccc(NC(=O)[C@@H](N)CCCCN)cc1 [BAL101553, (S)-2,6-Diamino-hexanoic acid [4-(2-{2-[4-(2-cyano-ethylamino)-furazan-3-yl]-benzoimidazol-1-yl}-acetyl)-phenyl]-amide]
[2]; [4]
  # of regressed tumors (total): 0 (10)
  T/C: 0.52
  # of confirmed cures (total): 0 (10)
  # of tumors with TV ≤ 4 mm^3 (total): 0 (20)
  % cures: 0%
[2]; [5]
  # of regressed tumors (total): 0 (10)
  T/C: 0.33
  # of confirmed cures (total): 0 (10)
  # of tumors with TV ≤ 4 mm^3 (total): 0 (10)
  % cures: 0%
[2]; [6]
  # of regressed tumors (total): 0 (10)
  T/C: 0.28
  # of confirmed cures (total): 0 (10)
  # of tumors with TV ≤ 4 mm^3 (total): 0 (10)
  % cures: 0%
[2]
  tumor free animals / cures (in words): did neither lead to tumor free animals
[3]; female, NMRI nu/nu, mouse, in vivo, po, 8 mg/kg, 21 day
  Mortalities: 0/10
[3]; female, NMRI nu/nu, mouse, in vivo, po, 10 mg/kg, 21 day
  Mortalities: 0/10
[3]; female, NMRI nu/nu, mouse, in vivo, po, 16 mg/kg, 21 day
  Mortalities: 0/10
[3]; mouse, in vivo, po, 8 mg/kg
  Body-weight change: 0.9 ± 0.8 g
[3]; mouse, in vivo, po, 10 mg/kg
  Body-weight change: 1.0 ± 1.2 g
[3]; mouse, in vivo, po, 16 mg/kg
  Body-weight change: 1.1 ± 0.9 g

## Nc1ccn([C@@H]2O[C@H](CO)[C@@H](O)C2(F)F)c(=O)n1 [Gemcitabine, gemcitabine, reference compound]
[2]; [7]
  # of regressed tumors (total): 4 (10)
  T/C: 0.03
  # of confirmed cures (total): 0 (10)
  # of tumors with TV ≤ 4 mm^3 (total): 1 (10)
  % cures: 0%
[2]
  tumor free animals / cures (in words): did not lead to tumor free animals (no cures)
[2]; single agent treatment (BAL101553 even at 16 n/kg; Gemcitabine SoC)
  tumor regression (in words): induced regression in some of the animals
[3]; Gemcitabine i.v. 240 mg/kg qw (h:0) x6, day 21 after first dose, 1 animal culled on day 8 (body-weight loss of more than 20%)
  Mortalities: 1/10*
[3]; mouse, in vivo, iv, 240 mg/kg
  Body-weight change: 0.9 ± 0.8 g
[1]
  plasma concentrations, single agents versus combination: did not change significantly
